Measured values reported in paper PMC13586308, “Cell type–selective targeting by heterobifunctional protein binders via in-cell enrichment” (Nature Communications, 2026).
Where two headings read alike, the source gives them in different places.

Columns and labels:
FKBP12 [1] = target: T1, FKBP12 (Homo sapiens, UniProt P62942); assay: competitive fluorescence polarization assay, binding to FKBP12; conditions: competitive FP assay
BRD4 = target: T2, BRD4 (Homo sapiens, UniProt O60885); assay: NanoBRET BRD4, transient BRD4-NanoLuc in HEK293T cells; assay type: cell-based; conditions: intact HEK293 cells
T2 construct: full-length BRD4 fused to NanoLuc at N terminus; expressed in transfected cells; host or cells: HEK293T
How it was run: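 BRD4 engagement measured in HEK293T cells transiently expressing N-terminal NanoLuc-BRD4 (20 h), with BRD Tracer-02 at its KD concentration. Cells equilibrated with serially diluted inhibitors for 2 h at 37 °C. Donor 450 nm/acceptor 610 nm BRET read; IC50 from normalized 3-parameter fit.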

FKBP12 [2] = target: T1, FKBP12; assay: NanoBRET FKBP12 in intact HEK293 cells; assay type: cell-based
BRD4^BD1 = target: T3, BRD4^BD1 (Homo sapiens, UniProt O60885); assay: competitive fluorescence polarization assay, BRD4 BD1 -/+ presenter protein; assay type: binding
T3 construct: to the isolated BD1 and BD2 domains of BRD2, BRD3 and BRD4

BRD4^BD2 = target: T4, BRD4^BD2 (Homo sapiens, UniProt O60885); assay: competitive fluorescence polarization assay, BRD4 BD2 -/+ presenter protein; assay type: binding
T4 construct: to the isolated BD1 and BD2 domains of BRD2, BRD3 and BRD4

MV4-11 cells = assay: CellTiter-Glo cell viability, MV4-11; assay type: cell-based, human; conditions: five days, without FKBP12 PROTAC
BRD3BD2 = target: T5, BRD3BD2 (Homo sapiens, UniProt Q15059); assay: competitive FP assay, BRD3 BD2 -/+ FKBP12; assay type: binding
T5 construct: to the isolated BD1 and BD2 domains of BRD2, BRD3 and BRD4

BRD3BD1 = target: T6, BRD3BD1 (Homo sapiens, UniProt Q15059); assay: competitive FP assay, BRD3 BD1 -/+ FKBP12; assay type: binding
T6 construct: to the isolated BD1 and BD2 domains of BRD2, BRD3 and BRD4

[3] = target: T7, His-BRD4^BD1 + eGFP-FKBP12 (Homo sapiens, UniProt O60885+P62942); assay: HTRF ternary complex formation BRD4 BD1 + EGFP-FKBP12; assay type: binding; conditions: eGFP-FKBP12 5 µM, His-BRD4^BD1 100 nM; read-out: HTRF BRD4^BD1 + GFP-FKBP12 Kd
T7 construct: the His6-tag of the respective BD1 or BD2 domain of BRD4 and EGFP-labeled FKBP12

BRD4 43-463 Y390A [4] = target: BRD4 43-463 Y390A (Homo sapiens, UniProt O60885, Y390A); assay: competitive FP assay, BRD4 tandem construct Y390A; assay type: binding
BRD4 43-463 Y390A [5] = assay: competitive FP assay, BRD4 tandem construct Y390A; assay type: binding
BRD2BD1 = target: T8, BRD2BD1 (Homo sapiens, UniProt P25440); assay: competitive FP assay, BRD2 BD1 -/+ FKBP12; assay type: binding
T8 construct: to the isolated BD1 and BD2 domains of BRD2, BRD3 and BRD4

INA-6 cells = assay: cell viability, INA-6 FKBP12 knockout or NTC; assay type: cell-based, human; conditions: for IC50: Homo sapiens, INA-6
BRD4 43-463 = BRD4 43-463 (Homo sapiens, UniProt O60885); assay: competitive FP assay, BRD4 tandem bromo domain construct; assay type: binding
BRD4 43-463 Y97A [6] = target: BRD4 43-463 Y97A (Homo sapiens, UniProt O60885, Y97A); assay: competitive FP assay, BRD4 tandem construct Y97A; assay type: binding
BRD4 43-463 Y97A [7] = assay: competitive FP assay, BRD4 tandem construct Y97A; assay type: binding
BRD2BD2 = BRD2BD2 (Homo sapiens, UniProt P25440); assay: competitive FP assay, BRD2 BD2 -/+ FKBP12; assay type: binding
[8] = target: T9, His-BRD4^BD2 + eGFP-FKBP12 (Homo sapiens, UniProt O60885+P62942); assay: HTRF ternary complex formation BRD4 BD2 + EGFP-FKBP12; assay type: binding; conditions: eGFP-FKBP12 5 µM, His-BRD4^BD2 100 nM; read-out: HTRF BRD4^BD2 + GFP-FKBP12 Kd
T9 construct: the His6-tag of the respective BD1 or BD2 domain of BRD4 and EGFP-labeled FKBP12

[9] = ratio of binding in absence or presence of FKBP12

T6 sequence (Q15059 34-140 limits assumed): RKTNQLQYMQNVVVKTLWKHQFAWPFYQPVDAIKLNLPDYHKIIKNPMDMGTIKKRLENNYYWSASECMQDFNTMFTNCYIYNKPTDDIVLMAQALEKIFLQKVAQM
T5 sequence (Q15059 306-415 limits assumed): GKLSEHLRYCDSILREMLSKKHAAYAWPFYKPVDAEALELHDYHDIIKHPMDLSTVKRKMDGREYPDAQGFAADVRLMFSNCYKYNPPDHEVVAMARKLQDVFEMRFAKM
T8 sequence (P25440 74-180 limits assumed): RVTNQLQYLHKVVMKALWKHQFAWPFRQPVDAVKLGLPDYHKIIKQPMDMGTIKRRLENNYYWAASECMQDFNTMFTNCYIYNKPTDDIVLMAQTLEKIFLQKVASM
BRD2BD2, sequence (P25440 344-453 limits assumed): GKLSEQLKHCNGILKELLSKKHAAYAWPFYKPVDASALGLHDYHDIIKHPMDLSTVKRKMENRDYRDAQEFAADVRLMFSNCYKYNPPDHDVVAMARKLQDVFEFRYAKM

`Cc1sc2c(c1C)C(c1ccc(C#CCNC(=O)COCCn3cc(C4CN(Cc5ccccn5)C(=O)C5CCCC4N5S(=O)(=O)c4cc(Cl)cc(Cl)c4)nn3)cc1)=NC(CC(=O)OC(C)(C)C)c1nnc(C)n1-2` (centres unmarked) [b3c] gave a Kd (FKBP12 [1]) of 3.7 nM, an IC50 (BRD4) of 194 nM and an IC50 (FKBP12 [2]) of 29 nM. It also gave a Kd (BRD4^BD1; 15 µM FKBP51FK1, read-out: Binding to BRD4BD1 + FKBP51FK1 Kd) of 50 ± 17 nM, a Kd (BRD4^BD1; absence of FKBP12, 2 nM JQ1-FL tracer, read-out: Binding to BRD4^BD1 - FKBP12 Kd) of 130 ± 20 nM and a Kd (BRD4^BD1; absence of FKBP51FK1 (SI Table 3), read-out: Binding to BRD4BD1 - FKBP51FK1 Kd) of 73 ± 20 nM. The Kd (BRD4^BD1; presence of 15 µM FKBP12, read-out: Binding to BRD4^BD1 + FKBP12 Kd (converted)) was 8 nM, the “α BRD4^BD1 (binding cooperativity factor)” value (BRD4^BD1; [9]) was 16 and the Kd (BRD4^BD2; 15 µM FKBP51FK1, read-out: Binding to BRD4BD2 + FKBP51FK1 Kd) was 250 ± 70 nM. The Kd (BRD4^BD2; absence of FKBP12, 2 nM JQ1-FL tracer, read-out: Binding to BRD4^BD2 - FKBP12 Kd) was 150 ± 20 nM, the Kd (BRD4^BD2; absence of FKBP51FK1 (SI Table 3), read-out: Binding to BRD4BD2 - FKBP51FK1 Kd) was 120 ± 40 nM and the Kd (BRD4^BD2; presence of 15 µM FKBP12, read-out: Binding to BRD4^BD2 + FKBP12 Kd (converted)) was 13 nM. For the same compound, the “α BRD4^BD2 (binding cooperativity factor)” value (BRD4^BD2; [9]) was 12, the IC50 (MV4-11 cells; Homo sapiens, MV4-11, 120 h, read-out: Cell toxicity (MV4-11) - FKBP12 PROTAC IC50) was 0.06 nM and the “Cell toxicity (MV4-11) - FKBP12 PROTAC IC50” value (MV4-11 cells) was “sub-nanomolar”. The “α BRD3BD2” value (BRD3BD2) was 3.8, the Kd (BRD3BD2; 15 µM FKBP12, read-out: Binding to BRD3BD2 + FKBP12 Kd) was 26 ± 6 nM and the Kd (BRD3BD2; absence of FKBP12, read-out: Binding to BRD3BD2 - FKBP12 Kd) was 100 ± 30 nM. The “α BRD3BD1” value (BRD3BD1) was 2.7, the Kd (BRD3BD1; 15 µM FKBP12, read-out: Binding to BRD3BD1 + FKBP12 Kd) was 13 ± 3 nM and the Kd (BRD3BD1; absence of FKBP12, read-out: Binding to BRD3BD1 - FKBP12 Kd) was 35 ± 7 nM. It also gave a Kd [3] of 1 ± 0.6 nM, a Kd (BRD4 43-463 Y390A [4]; Binding to BRD4 43-463 Y390A + FKBP12 Kd, 15 µM FKBP12) of 1.7 ± 0.5 nM and a Kd (BRD4 43-463 Y390A [4]; absence of FKBP12) of 25 ± 4 nM. The “α BRD4 43-463 Y390A” value (BRD4 43-463 Y390A [5]) was 15, the “α BRD2BD1” value (BRD2BD1) was 8.2 and the Kd (BRD2BD1; 15 µM FKBP12, read-out: Binding to BRD2BD1 + FKBP12 Kd) was 9 ± 4 nM. It also gave a Kd (BRD2BD1; absence of FKBP12, read-out: Binding to BRD2BD1 - FKBP12 Kd) of 74 ± 20 nM, an IC50 (INA-6 cells; FKBP12 knockout cells, read-out: Cell toxicity INA-6 FKBP12 KO IC50) of 90 nM and an IC50 (INA-6 cells; nontargeted control (NTC) cells, read-out: Cell toxicity INA-6 NTC IC50) of 1.8 nM. The “concentration inducing reduced cell viability in FKBP12-negative cells” value (INA-6 cells; INA-6 FKBP12 knockout) was at least 100 nM, the “α BRD4 43-463” value (BRD4 43-463) was 5.6 and the Kd (BRD4 43-463; Binding to BRD4 43-463 + FKBP12 Kd, 15 µM FKBP12) was 14 ± 2 nM. The Kd (BRD4 43-463; Binding to BRD4 43-463 - FKBP12 Kd, absence of FKBP12) was 79 ± 5 nM, the Kd (BRD4 43-463 Y97A [6]; Binding to BRD4 43-463 Y97A + FKBP12 Kd, 15 µM FKBP12) was 22 ± 3 nM and the Kd (BRD4 43-463 Y97A [6]; Binding to BRD4 43-463 Y97A - FKBP12 Kd, absence of FKBP12) was 178 ± 20 nM. For the same compound, the “α BRD4 43-463 Y97A” value (BRD4 43-463 Y97A [7]) was 8.1, the “α BRD2BD2” value (BRD2BD2) was 38 and the Kd (BRD2BD2; 15 µM FKBP12, read-out: Binding to BRD2BD2 + FKBP12 Kd) was 4 ± 2 nM. For the same compound, the Kd (BRD2BD2; absence of FKBP12, read-out: Binding to BRD2BD2 - FKBP12 Kd) was 150 ± 50 nM and the Kd [8] was 8 ± 3 nM.
